These results are taken from patent US5240961A, “Method of treating reduced insulin-like growth factor and bone loss associated with aging” (priority 1992, dated 1993).

Data set [1] can be described thus: Serum carnitine levels in aged mice fed L-carnitine. The class given is in vivo, mouse (BALB/c). The following applies: mouse, serum, po, 50 mg/kg/day, 50 mg/kg/day oral, six weeks. The procedure: (§1) The present invention is further explained by the following examples which should not be construed by way of limiting the scope of the present invention. In the following examples, serum carnitine levels were determined by the method of R. Parvin et al., Anal. Biochem., vol. 79 (1979) pp. 190-201. Serum IGF-1 concentrations were measured by immunoradiometric assay, for example, by IRMA Kit available from Diagnostic Systems Laboratories, Inc., Webster, Texas. Serum osteocalcin levels were measured according to the method of Grunaberg et al., Meth. Enzymology, vol 107 (1984) 516, and which is embodied in an osteocalcin kit available from Biomedical Technologies, Inc., Stoughton, Mass. All mice used in the animal studies were BALB/c strain which is commercially available.
(§2) Forty aged mice were separated into two groups. After an initial acclimatizing period of one week, one group was fed a diet with L-carnitine supplementation for six weeks and the other was fed normal, unsupplemented feed (control). Each mouse in the test group was fed a daily oral dose of L-carnitine of about 50 mg/kg of body weight. The average daily food for each mouse was determined by weighing the food initially placed in the food bin and weighing the remaining food. The feed was supplemented with L-carnitine so that each mouse in the test group consumed the test dose (50 mg/kg) of L-carnitine each day. Mouse blood was sampled prior to beginning of the trial (pretreatment), at the end of three weeks, and at six weeks (posttreatment), and was evaluated for serum osteocalcin and carnitine levels.

The test system of data set [2] is serum carnitine. The description is as above. It counts as in vivo, mouse (BALB/c). The following applies: 50 mg/kg/day. Here is the method:
as §1, §2

Data set [3] can be described thus: Serum carnitine after oral L-carnitine, double-blind study in patients over 60 (Example 5). The following applies: human, serum, po, 2 g/day. The class given is in vivo, human. The procedure: as §1
(§3) Nineteen patients (over age 60) were enrolled in a preliminary double-blindstudy to establish the effect of oral L-carnitine treatment on serum IGF-1 and osteocalcin levels. Baseline, i.e., pretreatment, levels of serum IGF-1, osteocalcin and carnitine were measured by known methods. The patients were divided into two groups, control (n=9; subjects 001-009 in Table 5 below) and treatment (n=10; subjects 010-019 in Table 5 below). The treatment group received a daily dosage of 2 g of L-carnitine orally, self-administered, in four separate doses of two 250 mg tablets taken four times per day, for twelve weeks. The control group were given placebo, e.g., simple sugar. Serum samples were drawn every four weeks, and serum carnitine, IGF-1 and osteocalcin were determined.

Data set [4] has as its system serum carnitine. The data set is described as above. It counts as in vivo, human. The following applies: individual subjects 010-019, 2 g/day oral. Here is the method: as §1, §3
Data set [5] in a line: Serum carnitine at 12 weeks in adult mice fed L-carnitine, acetyl carnitine or γ-butyrobetaine. Set-up: species or system mouse (BALB/c male). As to conditions: mouse, in vivo, po, Serum carnitine. The procedure:
as §1
Tests were performed to compare the effects on serum osteocalcin of diet supplementation with L-carnitine, its precursor, γ-butyrobetaine (available from Aldrich Chemical Co.) and one of its metabolites, acetylcarnitine (available from Life Science Resources, Milwaukee, Wis. 53223). Twenty adult mice, i.e., three months of age, (BALB/c male mice) were divided into seven groups. Each of the groups was fed diets as indicated hereinbelow for twelve weeks. One group (n=3) was fed a diet with L-carnitine supplementation at a dose of 50 mg/kg of body weight each day, while the second group (n=3) was fed L-carnitine at a daily dose of about 100 mg/kg. The third group (n=2) was fed a diet with acetylcarnitine supplementation at a daily dose of 50 mg/kg, while the fourth group (n=3) was fed a daily dose of 100 mg/kg of this compound. The fifth group (n=2) was fed a daily dose of 50 mg/kg of γ-butyrobetaine supplementation,while the sixth group was fed a daily dose of 100 mg/kg of γ-butyrobetaine. The seventh group (n=4) was fed normal, unsupplemented feed (control). Mouse blood was sampled prior to beginning of the trial (pretreatment), at six weeks, and at the end of the trial (twelve weeks). The samples were evaluated for serum osteocalcin levels at six and twelve weeks. Total carnitine was determined at twelve weeks.

SMILES strings stand for the structures. Where “and” joins values, the source holds several entries; their conditions need not be identical. Equal entries are not always repeated. Where two headings read alike, the source gives them in different places.

As for `C[N+](C)(C)C[C@H](O)CC(=O)[O-]` [L-carnitine], the concentration at 1008 h in data set [1] (read-out: Serum Carnitine, Free) stood at 57 ± 9.7 µM; in data set [1] (read-out: Serum Carnitine, Total) it was 80.2 ± 9.5 µM. For the same compound, in data set [2], the “carnitine levels vs control group” value was “higher carnitine levels than the control group”. Moreover, the concentration at 1344 h in data set [3] (individual subjects 010-019, 2 g/day oral, 8 weeks, read-out: Serum carnitine, Free) came to 65.4 µM; in data set [3] (individual subjects 010-019, 2 g/day oral, 8 weeks, read-out: Serum carnitine, Total), 88 µM; in data set [3] (treatment group average, eight weeks, read-out: average total carnitine), 75.6 µM. For the same compound, the concentration at 2016 h is 72.6 µM in data set [3] (individual subjects 010-019, 2 g/day oral, 12 weeks, read-out: Serum carnitine, Free); 101 µM in data set [3] (individual subjects 010-019, 2 g/day oral, 12 weeks, read-out: Serum carnitine, Total); 81.5 µM in data set [3] (treatment group average, twelve weeks, read-out: average total carnitine); 52.1 µM in data set [5] (50 mg/kg/day, Free); 66 µM in data set [5] (50 mg/kg/day, Total); 41.6 µM in data set [5] (100 mg/kg/day, Free). The concentration at 2016 h in data set [5] (100 mg/kg/day, Total) turned out to be 59.5 µM. Also, the concentration at 672 h in data set [3] (treatment group average, four weeks, read-out: average total carnitine) is 78.4 µM. The concentration in data set [4] (4 weeks, 40320 min, read-out: Serum carnitine, Free) is 54.4 µM and 61.6 µM and 36.6 µM and 66.6 µM and 67.4 µM and 52 µM and 67.2 µM and 40.4 µM and 61.2 µM and 85 µM; in data set [4] (4 weeks, 40320 min, read-out: Serum carnitine, Total) it was 71.6 µM and 72.5 µM and 52.4 µM and 80.3 µM and 120 µM and 67 µM and 84.4 µM and 54.3 µM and 73 µM and 108 µM; in data set [4] (8 weeks, 80640 min, read-out: Serum carnitine, Free), 58.6 µM and 52.6 µM and 65.2 µM and 74.6 µM and 57 µM and 67.4 µM and 39.4 µM and 61.2 µM; in data set [4] (8 weeks, 80640 min, read-out: Serum carnitine, Total), 76.6 µM and 64.8 µM and 72.5 µM and 91.7 µM and 67.9 µM and 83.4 µM and 51.5 µM and 83.9 µM; in data set [4] (12 weeks, 120960 min, read-out: Serum carnitine, Free), 61 µM and 49.6 µM and 70 µM and 55.8 µM and 69.6 µM; in data set [4] (12 weeks, 120960 min, read-out: Serum carnitine, Total) it was 79.3 µM and 62 µM and 75.7 µM and 70.2 µM and 94.4 µM.
